Read-outs that look alike come from different tables or passages of the source.
Experiments:
HUVECs = assay: High-content imaging cytotoxicity in HUVECs, 24 h; type: cell-based, human; settings: Homo sapiens, HUVEC, 24 h, HUVEC, 24 hr
Summary of the method: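 Point-of-departure values come from four-parameter logistic fits of vehicle-normalized (0.5% DMSO) imaging readouts, cutoff one SD of vehicle means, 100μM where no concentration–response. Cells: HUVEC monolayers, passages 1–5, treated 24 h at 37°C, 5% CO2, then Hoechst 33342/MitoTracker Orange/calcein AM stained, imaged at 10×.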

[1] = system: iCell cardiomyocytes (human iPSC-derived cardiomyocytes); assay: High-content imaging of cytotoxicity and mitochondrial integrity in iPSC-CMs; type: cell-based; settings: Homo sapiens, Cardiomyocyte, cardiomyocytes (cm)
Summary of the method: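 Cardiomyocytes grown on gelatinized 384-well plates received fresh medium on the experiment day and were then exposed to chemicals at 0.01–100μM. Nuclei and mitochondria were labeled with Hoechst 33342 and MitoTracker™ Orange, then fixed, and imaged on an ImageXpress® Micro Confocal system. Four-parameter logistic concentration–response fits in R, with a one-standard-deviation vehicle cutoff, gave point-of-departure values.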

Oc1ccccc1-c1ccc(Cl)cc1 [2'-OH-PCB 3]
minimal effective concentration (HUVECs; cyto, read-out: POD huvec.cyto.24hr): 5.19 µM | minimal effective concentration (HUVECs; mito, read-out: POD huvec.mito.24hr): 4.06 µM | minimal effective concentration (HUVECs; mitoint, read-out: POD huvec.mitoint.24hr): 34.4 µM | minimal effective concentration (HUVECs; nma, read-out: POD huvec.nma.24hr): 1.6 µM | minimal effective concentration (HUVECs; tc, read-out: POD huvec.tc.24hr): 5.19 µM | minimal effective concentration ([1]; 1.5 h, cam, 90 min, read-out: POD cm.cam.90min): 32.8 µM | minimal effective concentration ([1]; 1.5 h, mii, 90 min, read-out: POD cm.mii.90min): 9.15 µM | minimal effective concentration ([1]; 1.5 h, mito, 90 min, read-out: POD cm.mito.90min): 41.4 µM | minimal effective concentration ([1]; 1.5 h, tc, 90 min, read-out: POD cm.tc.90min): 34.5 µM | minimal effective concentration ([1]; 24 h, cam, 24 hrs, read-out: POD cm.cam.24hrs): 40.4 µM | minimal effective concentration ([1]; 24 h, mii, 24 hrs, read-out: POD cm.mii.24hrs): 6.56 µM | minimal effective concentration ([1]; 24 h, mito, 24 hrs, read-out: POD cm.mito.24hrs): 29.8 µM | minimal effective concentration ([1]; 24 h, tc, 24 hrs, read-out: POD cm.tc.24hrs): 35.9 µM

Source: paper PMC7377239, “Cardiovascular Effects of Polychlorinated Biphenyls and Their Major Metabolites” (Environmental Health Perspectives, 2020)
